The record followed here is patent US12202835B2, “Substituted aromatic ring-linked dioxinoquinazolines and dioxinoquinolines as kinase inhibitors” (BEIJING SCITECH-MQ PHARMACEUTICALS LIMITED, priority 2018, dated 2025).

SMILES strings stand for the structures. pIC50: −log10 of the molar value. Some results are limits rather than exact numbers.

In one test the target is c-MET kinase (Homo sapiens (Human), UniProt P08581). Put plainly: Assay of small molecular compounds for inhibiting the activity of c-MET kinase (LANCE TR-FRET). To be noted: read-out: CMET IC50. The class given is biochemical. The essentials:
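Eleven final concentrations from 2500 nM down to 0.042 nM, in 4% DMSO, were tested against human c-MET (2× stock 2 nM), with compound and enzyme premixed for 5 min. The phosphorylation reaction used 4× stock of 400 nM ULight-JAK-1 peptide and 40 μM ATP for 60 min at room temperature, then stop and detection steps. TR-FRET percent inhibition against positive and negative controls gave the IC50.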

The next test concerns the target MER kinase (Homo sapiens (Human), UniProt Q12866). Put plainly: Assay of small molecular compounds for inhibiting the activity of MER kinase (LANCE TR-FRET). In kind it is biochemical. In short, it runs like this:
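LANCE TR-FRET readout of ULight-poly GT phosphorylation by MER kinase; compound final range 0.042-2500 nM, 3-fold steps, 5 min enzyme preincubation. Reaction 60 min at room temperature in the dark with substrate/ATP (4× at 200 nM/20 μM), 1% DMSO, then stopped and developed 60 min; IC50 by curve fit.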
On the technique in general: TR-FRET usually uses a lanthanide donor and a delayed reading to cut background.

The subject of the next test is Ba/F3 LMNA-NTRK1 cells. Put plainly: Assay for inhibiting the proliferation of Ba/F3 LMNA-NTRK1 cells (CCK-8). To be noted: Mus musculus, BaF3. In kind it is cell-based. In short, it runs like this: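 Viability was read as absorbance at 450 nm following 1–2 h CCK-8 incubation at 37 °C, relative to control and blank wells.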

c-MET kinase, sequence (P08581 25-1390): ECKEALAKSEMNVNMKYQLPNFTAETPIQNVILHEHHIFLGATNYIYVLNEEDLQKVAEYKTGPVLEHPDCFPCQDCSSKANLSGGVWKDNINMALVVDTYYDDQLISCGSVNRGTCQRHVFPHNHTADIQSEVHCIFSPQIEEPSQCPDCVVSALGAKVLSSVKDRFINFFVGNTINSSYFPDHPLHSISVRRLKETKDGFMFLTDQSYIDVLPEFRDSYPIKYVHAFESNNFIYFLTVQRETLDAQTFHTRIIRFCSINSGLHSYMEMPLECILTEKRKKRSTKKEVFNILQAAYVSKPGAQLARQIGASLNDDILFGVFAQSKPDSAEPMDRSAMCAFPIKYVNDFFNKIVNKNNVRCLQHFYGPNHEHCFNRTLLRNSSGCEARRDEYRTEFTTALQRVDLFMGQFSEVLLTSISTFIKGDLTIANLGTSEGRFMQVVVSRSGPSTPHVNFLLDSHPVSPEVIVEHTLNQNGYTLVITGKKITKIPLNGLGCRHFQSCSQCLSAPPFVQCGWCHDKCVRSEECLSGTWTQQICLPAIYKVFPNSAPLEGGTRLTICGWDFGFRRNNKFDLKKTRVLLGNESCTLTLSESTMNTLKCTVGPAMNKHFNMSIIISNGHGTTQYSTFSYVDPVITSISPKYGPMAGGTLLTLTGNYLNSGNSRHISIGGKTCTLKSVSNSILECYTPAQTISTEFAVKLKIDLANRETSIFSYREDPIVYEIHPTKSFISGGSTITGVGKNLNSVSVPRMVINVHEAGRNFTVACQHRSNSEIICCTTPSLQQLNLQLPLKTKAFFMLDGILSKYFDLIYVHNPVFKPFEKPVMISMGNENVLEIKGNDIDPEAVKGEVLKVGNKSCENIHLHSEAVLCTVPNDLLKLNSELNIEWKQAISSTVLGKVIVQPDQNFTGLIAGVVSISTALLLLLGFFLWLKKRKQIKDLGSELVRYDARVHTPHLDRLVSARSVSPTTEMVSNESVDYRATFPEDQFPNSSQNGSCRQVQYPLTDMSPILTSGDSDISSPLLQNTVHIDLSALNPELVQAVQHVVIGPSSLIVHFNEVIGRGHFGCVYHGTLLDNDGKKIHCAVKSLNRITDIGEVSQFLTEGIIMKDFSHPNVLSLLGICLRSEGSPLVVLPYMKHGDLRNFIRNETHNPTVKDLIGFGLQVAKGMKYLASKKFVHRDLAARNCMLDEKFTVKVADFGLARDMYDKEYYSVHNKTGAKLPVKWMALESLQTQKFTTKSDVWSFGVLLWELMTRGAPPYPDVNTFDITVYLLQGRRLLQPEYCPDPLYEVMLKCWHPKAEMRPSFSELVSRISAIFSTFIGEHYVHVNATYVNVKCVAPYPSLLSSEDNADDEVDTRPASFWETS
MER kinase, sequence (Q12866 21-999): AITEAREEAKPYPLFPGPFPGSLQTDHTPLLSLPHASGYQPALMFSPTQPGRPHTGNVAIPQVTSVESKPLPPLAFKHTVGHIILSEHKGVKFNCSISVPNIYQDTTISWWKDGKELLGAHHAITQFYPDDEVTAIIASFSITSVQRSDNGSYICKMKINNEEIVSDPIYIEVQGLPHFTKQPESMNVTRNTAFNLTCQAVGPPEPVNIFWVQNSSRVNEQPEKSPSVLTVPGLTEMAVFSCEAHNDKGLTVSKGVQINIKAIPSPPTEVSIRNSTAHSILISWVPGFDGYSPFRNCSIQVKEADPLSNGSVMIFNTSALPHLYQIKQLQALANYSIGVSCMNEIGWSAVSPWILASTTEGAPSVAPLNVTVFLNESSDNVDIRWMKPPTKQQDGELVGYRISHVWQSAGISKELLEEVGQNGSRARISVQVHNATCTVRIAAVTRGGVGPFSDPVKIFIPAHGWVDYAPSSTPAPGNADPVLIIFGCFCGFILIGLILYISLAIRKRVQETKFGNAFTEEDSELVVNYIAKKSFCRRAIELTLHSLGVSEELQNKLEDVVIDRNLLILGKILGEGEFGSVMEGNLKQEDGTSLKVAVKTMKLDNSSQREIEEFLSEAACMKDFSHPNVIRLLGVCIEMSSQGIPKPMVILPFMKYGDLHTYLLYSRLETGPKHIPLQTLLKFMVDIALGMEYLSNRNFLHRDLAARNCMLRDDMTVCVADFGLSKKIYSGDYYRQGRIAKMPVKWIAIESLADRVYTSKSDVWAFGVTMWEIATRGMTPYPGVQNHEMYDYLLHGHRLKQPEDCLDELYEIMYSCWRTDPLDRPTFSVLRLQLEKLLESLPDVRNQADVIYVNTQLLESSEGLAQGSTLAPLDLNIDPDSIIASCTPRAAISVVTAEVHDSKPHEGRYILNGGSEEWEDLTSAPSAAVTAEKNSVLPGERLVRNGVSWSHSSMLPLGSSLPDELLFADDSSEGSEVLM

Usually pIC50 stands for the negative decadic logarithm of the IC50, by convention in mol/L. Consider `CC(C)n1cc(C(=O)Nc2ccc(Oc3ccnc4cc(OCC(C)(C)O)c5c(c34)OCCO5)c(F)c2)c(=O)n(-c2ccc(F)cc2)c1=O` [Example 122, N-(3-fluoro-4-((5-(2-hydroxy-2-methylpropoxy)-2,3-dihydro-[1,4]dioxino[2,3-f]quinolin-10-yl)oxy)phenyl)-3-(4-fluorophenyl)-1-isopropyl-2,4-dioxo-1,2,3,4-tetrahydropyrimidine-5-carboxamide], for which the pIC50 at c-MET kinase was at least 7.30; against MER kinase it was at least 7.30; in the test with Ba/F3 LMNA-NTRK1 cells, over 7.30.

Take `CCOc1cc2nccc(Oc3ccc(NC(=O)c4c(OC)ccn(-c5ccc(F)cc5)c4=O)c(Cl)c3)c2c2c1OCCO2` [Example 128, N-(2-chloro-4-((5-ethoxy-2,3-dihydro-[1,4]dioxino[2,3-f]quinolin-10-yl)oxy)phenyl)-1-(4-fluorophenyl)-4-methoxy-2-oxo-1,2-dihydropyridine-3-carboxamide]: the negative logarithm of the IC50 (pIC50) on c-MET kinase was at least 7.30; against MER kinase, at least 7.30; with Ba/F3 LMNA-NTRK1 cells, over 7.30.

Turning to `CCOc1cc2nccc(Oc3ccc(NC(=O)c4cccn(-c5ccc(F)cc5)c4=O)c(Cl)c3)c2c2c1OCCO2` [Example 127, N-(2-chloro-4-((5-ethoxy-2,3-dihydro-[1,4]dioxino[2,3-f]quinolin-10-yl)oxy)phenyl)-1-(4-fluorophenyl)-2-oxo-1,2-dihydropyridine-3-carboxamide], the negative-log IC50 (pIC50) was at least 7.30 on c-MET kinase, at least 7.30 against MER kinase and over 7.30 in the test with Ba/F3 LMNA-NTRK1 cells.

Regarding `COc1cc2nccc(Oc3ccc(NC(=O)c4c(OC)ccn(-c5ccc(F)cc5)c4=O)cc3F)c2c2c1OCCO2` [Example 18, N-(3-fluoro-4-((5-methoxy-2,3-dihydro-[1,4]dioxino[2,3-f]quinolin-10-yl)oxy)phenyl)-1-(4-fluorophenyl)-4-methoxy-2-oxo-1,2-dihydropyridine-3-carboxamide], the negative logarithm of the IC50 (pIC50) at c-MET kinase was at least 7.30; on MER kinase it was at least 7.30; in the test with Ba/F3 LMNA-NTRK1 cells, over 7.30.

`COc1ccn(-c2ccc(F)cc2)c(=O)c1C(=O)Nc1ccc(Oc2ccnc3cc(OCCCC#N)c4c(c23)OCCO4)cc1Cl` [Example 132, N-(2-chloro-4-((5-(3-cyanopropoxy)-2,3-dihydro-[1,4]dioxino[2,3-f]quinolin-10-yl)oxy)phenyl)-1-(4-fluorophenyl)-4-methoxy-2-oxo-1,2-dihydropyridine-3-carboxamide]: the negative-log IC50 (pIC50) at c-MET kinase is at least 7.30; at MER kinase, at least 7.30; in the test on Ba/F3 LMNA-NTRK1 cells it was over 7.30.

`CCOc1cc2nccc(Oc3ccc(NC(=O)c4c(OCC)ccn(-c5ccc(F)cc5)c4=O)c(Cl)c3)c2c2c1OCCO2` [Example 130, N-(2-chloro-4-((5-ethoxy-2,3-dihydro-[1,4]dioxino[2,3-f]quinolin-10-yl)oxy)phenyl)-1-(4-fluorophenyl)-4-ethoxy-2-oxo-1,2-dihydropyridine-3-carboxamide]: the values for the pIC50 on c-MET kinase, against MER kinase and in the test on Ba/F3 LMNA-NTRK1 cells were at least 7.30, at least 7.30 and over 7.30, respectively.

Regarding `CC(C)n1cc(C(=O)Nc2ccc(Oc3ccnc4cc(OCCCN5CCC(C)(O)CC5)c5c(c34)OCCO5)c(F)c2)c(=O)n(-c2ccc(F)cc2)c1=O` [Example 94, N-(3-fluoro-4-((5-(3-(4-methyl-4-hydroxypiperidin-1-yl)propoxy)-2,3-dihydro-[1,4]dioxino[2,3-f]quinolin-10-yl)oxy)phenyl)-3-(4-fluorophenyl)-1-isopropyl-2,4-dioxo-1,2,3,4-tetrahydropyrimidine-5-carboxamide], the pIC50 is at least 7.30 at c-MET kinase, at least 7.30 against MER kinase and 6.70 to 7.30 in the test with Ba/F3 LMNA-NTRK1 cells.

Regarding `Cn1cc(C(=O)Nc2ccc(Oc3ncnc4cc(OCCCN5CCOCC5)c5c(c34)OCCO5)c(F)c2)c(=O)n(-c2ccc(F)cc2)c1=O` [Example 30, N-(3-fluoro-4-((5-(3-morpholinopropoxy)-2,3-dihydro-[1,4]dioxino[2,3-f]quinazolin-10-yl)oxy)phenyl)-3-(4-fluorophenyl)-1-methyl-2,4-dioxo-1,2,3,4-tetrahydropyrimidine-5-carboxamide], the pIC50 at c-MET kinase is at least 7.30; on MER kinase, at least 7.30; with Ba/F3 LMNA-NTRK1 cells it was over 7.30.

With `CCOc1ccn(-c2ccc(F)cc2)c(=O)c1C(=O)Nc1ccc(Oc2ccnc3cc(OCCCN4CCCCC4)c4c(c23)OCCO4)cc1Cl` [Example 138, N-(2-chloro-4-((5-((3-piperidin-1-yl)propoxy)-2,3-dihydro-[1,4]dioxino[2,3-f]quinolin-10-yl)oxy)phenyl)-1-(4-fluorophenyl)-4-ethoxy-2-oxo-1,2-dihydropyridine-3-carboxamide], the pIC50 was at least 7.30 at c-MET kinase, at least 7.30 against MER kinase and over 7.30 with Ba/F3 LMNA-NTRK1 cells.

Turning to `COc1cn(-c2ccc(F)cc2C)nc1C(=O)Nc1ccc(Oc2ccnc3cc(OCCCN4CCOCC4)c4c(c23)OCCO4)c(F)c1` [Example 27, 1-(4-fluoro-2-methylphenyl)-N-(3-fluoro-4-((5-(3-morpholinopropoxy)-2,3-dihydro-[1,4]dioxino[2,3-f]quinolin-10-yl)oxy)phenyl)-4-methoxy-1H-pyrazole-3-carboxamide], the negative-log IC50 (pIC50) on c-MET kinase was at least 7.30; on MER kinase, at least 7.30; with Ba/F3 LMNA-NTRK1 cells, over 7.30.

`CCOc1ccn(-c2ccc(F)cc2)c(=O)c1C(=O)Nc1ccc(Oc2ccnc3cc(OCCCN4CCCCC4)c4c(c23)OCCO4)c(F)c1` [Example 33, N-(3-fluoro-4-((5-(3-(piperidin-1-yl)propoxy)-2,3-dihydro-[1,4]dioxino[2,3-f]quinolin-10-yl)oxy)phenyl)-1-(4-fluorophenyl)-4-ethoxy-2-oxo-1,2-dihydropyridine-3-carboxamide]: the values for the pIC50 at c-MET kinase, against MER kinase and in the test on Ba/F3 LMNA-NTRK1 cells were at least 7.30, at least 7.30 and over 7.30, respectively.

On to `Cn1cc(C(=O)Nc2ccc(Oc3ccnc4cc(OCCCN5CCOCC5)c5c(c34)OCCO5)cc2Cl)c(=O)n(-c2ccc(F)cc2)c1=O` [Example 98, N-(2-chloro-4-((5-(3-morpholinopropoxy)-2,3-dihydro-[1,4]dioxino[2,3-f]quinolin-10-yl)oxy)phenyl)-3-(4-fluorophenyl)-1-methyl-2,4-dioxo-1,2,3,4-tetrahydropyrimidine-5-carboxamide], for which the negative-log IC50 (pIC50) was 6.30 to 7.30 on c-MET kinase, at least 7.30 against MER kinase and over 7.30 in the test on Ba/F3 LMNA-NTRK1 cells.

On to `CCOc1ccn(-c2ccc(F)cc2)c(=O)c1C(=O)Nc1ccc(Oc2ccnc3cc(OCCOC)c4c(c23)OCCO4)c(F)c1` [Example 36, N-(3-fluoro-4-((5-(2-methoxyethoxy)-2,3-dihydro-[1,4]dioxino[2,3-f]quinolin-10-yl)oxy)phenyl)-1-(4-fluorophenyl)-4-ethoxy-2-oxo-1,2-dihydropyridine-3-carboxamide], for which the negative-log IC50 (pIC50) was at least 7.30 at c-MET kinase, at least 7.30 at MER kinase and over 7.30 in the test with Ba/F3 LMNA-NTRK1 cells.

For the compound `COc1cc2nccc(Oc3cc(Cl)c(NC(=O)c4cn(C)c(=O)n(-c5ccc(F)cc5)c4=O)cc3F)c2c2c1OCCO2` [Example 116, N-(2-chloro-5-fluoro-4-((5-methoxy-2,3-dihydro-[1,4]dioxino[2,3-f]quinolin-10-yl)oxy)phenyl)-3-(4-fluorophenyl)-1-methyl-2,4-dioxo-1,2,3,4-tetrahydropyrimidine-5-carboxamide], the pIC50 is at least 7.30 on c-MET kinase, at least 7.30 at MER kinase and over 7.30 with Ba/F3 LMNA-NTRK1 cells.

`CCOc1ccn(-c2ccc(F)cc2)c(=O)c1C(=O)Nc1ccc(Oc2ccnc3cc(OC)c4c(c23)OCCO4)c(F)c1` [Example 19, N-(3-fluoro-4-((5-methoxy-2,3-dihydro-[1,4]dioxino[2,3-f]quinolin-10-yl)oxy)phenyl)-1-(4-fluorophenyl)-4-ethoxy-2-oxo-1,2-dihydropyridine-3-carboxamide]: the results for the negative logarithm of the IC50 (pIC50) on c-MET kinase, against MER kinase and with Ba/F3 LMNA-NTRK1 cells were at least 7.30, at least 7.30 and over 7.30, respectively.

As to `COc1cc2nccc(Oc3ccc(NC(=O)c4cn(C)c(=O)n(-c5ccc(F)cc5)c4=O)cc3)c2c2c1OCCO2` [Example 145, N-(4-((5-methoxy-2,3-dihydro-[1,4]dioxino[2,3-f]quinolin-10-yl)oxy)phenyl)-3-(4-fluorophenyl)-1-methyl-2,4-dioxo-1,2,3,4-tetrahydropyrimidine-5-carboxamide], the values for the pIC50 at c-MET kinase and with Ba/F3 LMNA-NTRK1 cells were at least 7.30 and over 7.30, respectively.

As for `Cn1cc(C(=O)Nc2ccc(Oc3ccnc4cc(OCC(C)(C)O)c5c(c34)OCCO5)cc2)c(=O)n(-c2ccc(F)cc2)c1=O` [Example 149, N-(4-((5-(2-hydroxy-2-methylpropoxy)-2,3-dihydro-[1,4]dioxino[2,3-f]quinolin-10-yl)oxy)phenyl)-3-(4-fluorophenyl)-1-methyl-2,4-dioxo-1,2,3,4-tetrahydropyrimidine-5-carboxamide], the pIC50 was at least 7.30 on c-MET kinase and over 7.30 in the test with Ba/F3 LMNA-NTRK1 cells.

As to `COc1cc2nccc(Oc3ccc(NC(=O)c4cn(C)c(=O)n(-c5ccc(F)cc5)c4=O)c(F)c3)c2c2c1OCCO2` [Example 153, N-(2-fluoro-4-((5-methoxy-2,3-dihydro-[1,4]dioxino[2,3-f]quinolin-10-yl)oxy)phenyl)-3-(4-fluorophenyl)-1-methyl-2,4-dioxo-1,2,3,4-tetrahydropyrimidine-5-carboxamide], the pIC50 on c-MET kinase is at least 7.30; with Ba/F3 LMNA-NTRK1 cells, over 7.30.
